These are literature values, as cited in patent US20110086911A1, “NOVEL BISMUTH(III) NSAID COMPOUNDS AND METHODS FOR THEIR USE” (Monash University, priority 2009, published 2011).

This data set concerns H. pylori strains B128, 251 and 26695. The note with it: comparison values for substances not listed among those tested.

For the compound colloidal bismuth subcitrate [CBS], the MIC value was at least 12.5 µg/mL.
With `CNC(=C[N+](=O)[O-])NCCSCc1ccc(CN(C)C)o1.O=C([O-])CC(O)(CC(=O)[O-])C(=O)[O-].[Bi+3]` [RBC, ranitidine bismuth citrate], the MIC value was 8 µg/mL.
